Data: ChEMBL document CHEMBL4706566, “New drug approvals for 2019: Synthesis and clinical applications” (Eur J Med Chem, 2020)

Key:
clinical = details: human
D(2) dopamine receptor [1] = target: T1, D(2) dopamine receptor (Homo sapiens, UniProt P14416)
Description: Partial agonist activity at presynaptic D2 receptor (unknown origin)

[2] = target: 5-hydroxytryptamine receptor 2A (Homo sapiens, UniProt P28223)
Description: Antagonist activity at 5HT2A receptor (unknown origin)

D(2) dopamine receptor [3] = target: T1, D(2) dopamine receptor; remark: listed apart in the source
Description: Antagonist activity at postsynaptic D2 receptor (unknown origin)

T1 sequence (P14416 whole entry): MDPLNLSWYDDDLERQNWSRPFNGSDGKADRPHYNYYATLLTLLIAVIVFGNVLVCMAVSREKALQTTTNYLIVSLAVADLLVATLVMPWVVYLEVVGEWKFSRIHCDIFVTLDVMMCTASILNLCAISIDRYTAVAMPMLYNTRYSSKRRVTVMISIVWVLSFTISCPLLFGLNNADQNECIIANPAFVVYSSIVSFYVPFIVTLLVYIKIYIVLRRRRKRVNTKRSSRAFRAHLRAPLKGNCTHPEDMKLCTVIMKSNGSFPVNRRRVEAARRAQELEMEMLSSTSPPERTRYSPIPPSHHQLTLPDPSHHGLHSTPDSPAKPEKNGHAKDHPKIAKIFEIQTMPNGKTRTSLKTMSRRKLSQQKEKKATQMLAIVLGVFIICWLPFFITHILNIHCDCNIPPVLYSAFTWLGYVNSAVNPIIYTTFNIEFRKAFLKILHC
Chain of 5-hydroxytryptamine receptor 2A (P28223 whole entry): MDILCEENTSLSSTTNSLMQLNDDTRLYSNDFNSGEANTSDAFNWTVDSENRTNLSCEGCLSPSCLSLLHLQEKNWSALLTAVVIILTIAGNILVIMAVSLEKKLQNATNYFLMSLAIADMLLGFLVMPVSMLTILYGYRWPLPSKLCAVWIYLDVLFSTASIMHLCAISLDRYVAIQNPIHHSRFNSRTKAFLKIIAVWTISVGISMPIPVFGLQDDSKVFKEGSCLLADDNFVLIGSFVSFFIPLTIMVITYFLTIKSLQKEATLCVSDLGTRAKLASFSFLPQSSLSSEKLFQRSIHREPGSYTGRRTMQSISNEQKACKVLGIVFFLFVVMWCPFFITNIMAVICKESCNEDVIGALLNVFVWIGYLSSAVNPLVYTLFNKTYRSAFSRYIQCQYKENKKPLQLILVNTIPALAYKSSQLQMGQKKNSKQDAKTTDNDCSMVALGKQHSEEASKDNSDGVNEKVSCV

Molecule `CCn1c(=O)c2c(nc(/C=C/c3ccc(OC)c(OC)c3)n2C)n(CC)c1=O` [ISTRADEFYLLINE] has a half-life (clinical) of 64 h.
`CN1CCN2c3c(cccc31)[C@@H]1CN(CCCC(=O)c3ccc(F)cc3)CC[C@@H]12` [LUMATEPERONE] gave an IC50 (D(2) dopamine receptor [1]) of 4.1 nM, an IC50 [2] of 0.54 nM and an IC50 (D(2) dopamine receptor [3]) of 3.2 nM.
